According to ChEMBL document CHEMBL1133508, “Syntheses and antimalarial activities of 10-substituted deoxoartemisinins” (2000):

Experiments:
Plasmodium falciparum [1] = assay: In vitro activity against chloroquine-resistant, mefloquine-sensitive Plasmodium falciparum W2; assay type: functional
Plasmodium falciparum [2] = assay: In vitro relative activity against chloroquine-sensitive, mefloquine-resistant Plasmodium falciparum D6; assay type: functional

Structure (SMILES) | Relative activity (Plasmodium falciparum [1]) | Relative activity (Plasmodium falciparum [2])
C[C@H]1[C@@H](C[C@H](O)C(F)(F)F)O[C@@H]2OC3(C)CC[C@H]4[C@H](C)CC[C@@H]1[C@@]24OO3 (single isomer, unassigned) | 3.1 | 2.5
C[C@H]1[C@@H](C2C=CC(=O)O2)O[C@@H]2O[C@]3(C)CC[C@H]4[C@H](C)CC[C@@H]1[C@@]24OO3 (some centres not stated) | 0.18 | 0.77
C[C@H]1[C@@H](C#N)O[C@@H]2OC3(C)CC[C@H]4[C@H](C)CC[C@@H]1[C@@]24OO3 (single isomer, unassigned) | 1.1 | 1.5
CC(C)[C@@H](O)C[C@H]1O[C@@H]2OC3(C)CC[C@H]4[C@H](C)CC[C@@H]([C@H]1C)[C@@]24OO3 (single isomer, unassigned) | 1.7 | 2.2
C[C@H]1[C@@H](C[C@H](C)O)O[C@@H]2OC3(C)CC[C@H]4[C@H](C)CC[C@@H]1[C@@]24OO3 (single isomer, unassigned) | 1 | 0.98
C[C@H]1[C@@H](CC(=O)c2ccccc2)O[C@@H]2OC3(C)CC[C@H]4[C@H](C)CC[C@@H]1[C@@]24OO3 (single isomer, unassigned) | 2.5 | 0.16
CC[C@H](O)C[C@H]1O[C@@H]2OC3(C)CC[C@H]4[C@H](C)CC[C@@H]([C@H]1C)[C@@]24OO3 (single isomer, unassigned) | 3.6 | 2.2
C[C@H]1[C@@H](C2CCCC2=O)O[C@@H]2OC3(C)CC[C@H]4[C@H](C)CC[C@@H]1[C@@]24OO3 (single isomer, unassigned) | 1.6 | 0.91
CCC(=O)C[C@H]1O[C@@H]2OC3(C)CC[C@H]4[C@H](C)CC[C@@H]([C@H]1C)[C@@]24OO3 (single isomer, unassigned) | 1.3 | 1
CC(=O)C[C@H]1O[C@@H]2OC3(C)CC[C@H]4[C@H](C)CC[C@@H]([C@H]1C)[C@@]24OO3 (single isomer, unassigned) | 1.7 | 2.6
C[C@H]1[C@@H](C[C@@H](C)O)O[C@@H]2OC3(C)CC[C@H]4[C@H](C)CC[C@@H]1[C@@]24OO3 (single isomer, unassigned) | 1.7 | 1.7
CCOC(=O)/C=C/C[C@H]1O[C@@H]2OC3(C)CC[C@H]4[C@H](C)CC[C@@H]([C@H]1C)[C@@]24OO3 (single isomer, unassigned) | 1.4 | 1.1
C[C@H]1[C@@H](C[C@@H](O)C(F)(F)F)O[C@@H]2OC3(C)CC[C@H]4[C@H](C)CC[C@@H]1[C@@]24OO3 (single isomer, unassigned) | 2.4 | 3.1
C[C@H]1[C@@H](C2CCCC(=O)O2)O[C@@H]2OC3(C)CC[C@H]4[C@H](C)CC[C@@H]1[C@@]24OO3 (single isomer, unassigned) | 2.2 | 1.4
CC[C@@H](O)C[C@H]1O[C@@H]2OC3(C)CC[C@H]4[C@H](C)CC[C@@H]([C@H]1C)[C@@]24OO3 (single isomer, unassigned) | 4.8 | 5.8
CC(C)[C@H](O)C[C@H]1O[C@@H]2OC3(C)CC[C@H]4[C@H](C)CC[C@@H]([C@H]1C)[C@@]24OO3 (single isomer, unassigned) | 2.3 | 1.4
C[C@H]1[C@@H](C[C@H](O)C(C)(C)C)O[C@@H]2OC3(C)CC[C@H]4[C@H](C)CC[C@@H]1[C@@]24OO3 (single isomer, unassigned) | 5.4 | 6.8
C[C@H]1[C@@H](CC=O)O[C@@H]2OC3(C)CC[C@H]4[C@H](C)CC[C@@H]1[C@@]24OO3 (single isomer, unassigned) | 1.8 | 3.5
C[C@H]1[C@@H](CC(=O)C(C)(C)C)O[C@@H]2OC3(C)CC[C@H]4[C@H](C)CC[C@@H]1[C@@]24OO3 (single isomer, unassigned) | 2.1 | 1.6
CC(C)C(=O)C[C@H]1O[C@@H]2OC3(C)CC[C@H]4[C@H](C)CC[C@@H]([C@H]1C)[C@@]24OO3 (single isomer, unassigned) | 2.1 | 1.8
C[C@H]1[C@@H](C[C@@H](O)C(C)(C)C)O[C@@H]2OC3(C)CC[C@H]4[C@H](C)CC[C@@H]1[C@@]24OO3 (single isomer, unassigned) | 1 | 1.6
